{
  "source": "patent US12016858B2",
  "about": "“Methods for the treatment of abnormal involuntary movement disorders” (AUSPEX PHARMACEUTICALS, INC., priority 2015, dated 2024)",
  "key": {"[1]": {"test_system": "patients with moderate to severe tardive dyskinesia", "experiment": "ARM-TD randomized, double-blind, placebo-controlled study", "assay_type": "in vivo, human", "from_the_text": "An additional clinical study, Aim to Reduce Movements in […] Dyskinesia (ARM-TD) was designed and conducted to evaluate the efficacy of SD-809 (deutetrabenazine) in the treatment of moderate to severe tardive dyskinesia. […] Subjects were screened for inclusion in the study as follows. Inclusion criteria included: between 18 and 75 years of age, inclusive; history of using a dopamine receptor antagonist for at least 3 months (or 1 month in subjects 60 years of age and older); clinical diagnosis of TD, and has had symptoms for at least 3 months prior to Screening; […] Dosing. […] Drug was then administered at that dose for another six weeks for a total treatment of 12 weeks, followed by a 1-week washout period. […] Dose suspensions of up to one week were permitted if the subject experienced a clinically significant adverse event. Study Objectives and Endpoints. The objectives of the study was to evaluate the efficacy of SD-809 in reducing the severity of abnormal involuntary movements associated with tardive dyskinesia and the safety and tolerability of titration and maintenance therapy with deutetrabenazine in subjects with drug-induced tardive dyskinesia. […] Baseline AIMS score is defined for each subject as the Day 0 assessment. The AIMS is composed of 12 clinician-administered and scored items. Items 1-10 are rated on a 5-point, anchored scale and consist of the following: • Items 1-4 assess orofacial movements; • Items 5-7 deal with extremity and truncal dyskinesia; • Items 8-10 deal with global severity as judged by the examiner, and the patient's awareness of the movements and the distress associated with them; and • Items 11-12 are yes/no questions concerning problems associated with teeth and/or dentures, as such problems can be mistaken for dyskinesia. […] As with previous studies, […] treatment success may be defined as Much or Very Much Improved on a 7-point Likert Scale, ranging from very much worse to very much improved at Week 12. The CDQ-24 is a disease-specific quality of life questionnaire developed for use in patients with craniocervical dystonia, including both cervical dystonia (CD) and blepharospasm (BPS). The CDQ-24 was selected for use in the present study because it includes domains which are relevant not only to CD and BPS, but to TD, such as stigma, emotional well-being, pain, activities of daily living, and social/family life. For the present study, the CDQ-24 has been modified such that the questions focus more directly on the impact of TD (as opposed to CD/BPS) on quality of life. […] Measurements and Statistics. Digital video recordings of AIMS assessments made at all clinic visits (at Screening, Baseline, Weeks 2, 4, 6, 9, and 12) were rated by pairs of central raters who were experts in movement disorders and were blinded to treatment arm, sequence of video, and the investigator AIMS score. Analysis was carried out using a linear mixed model for repeated measurements (MMRM) with the change in the AIMS score as the dependent variable. The model included fixed effects for treatment group, time point (five levels: Weeks 2, 4, 6, 9, and 12), the treatment group by time point interaction, and the randomization stratification variable. The unstructured covariance model was used and the primary analysis compared the deutetrabenazine and placebo groups at Week 12 using a two-sided test at the 5% level of significance."}, "[2]": {"test_system": "cardiac repolarization (QTcF interval)", "experiment": "TQT study, six-period crossover, placebo- and positive-controlled", "assay_type": "in vivo, healthy volunteers", "details": "for Maximum Placebo-Adjusted Change from Baseline in QTcF: fed", "method": "Study Design. Given the known risk for tetrabenazine to increase the QT interval, a TQT study of deutetrabenazine, which included tetrabenazine as a treatment arm, was conducted in 48 healthy volunteers. This was a single-center, randomized, double-blind, placebo- and positive-controlled six-period crossover study to evaluate the effects of low-dose (12 mg) and high-dose (24 mg) deutetrabenazine on cardiac repolarization, based on placebo-corrected, time-matched changes from baseline in the QTcF interval. Assay sensitivity was established by using moxifloxacin 400 mg as the positive control.\nThe key outcome measure was to determine the effect of single doses of deutetrabenazine on the QTc interval.\nIn the table above, ΔΔQTcF is defined as the difference between the least squares mean change from baseline for the active drug and placebo. deutetrabenazine was compared with deutetrabenazine placebo (administered under fed conditions) and tetrabenazine was compared with tetrabenazine placebo (administered under fasted conditions). […] The upper limit of the 95% one-sided confidence interval is the upper limit of the 90% 2-sided confidence interval."}, "[3]": {"test_system": "subjects with chorea associated with HD", "details": "in vivo", "experimental": "First-HD was a randomized, double-blind, placebo-controlled, parallel-group study designed to evaluate the efficacy, safety, and tolerability of deutetrabenazine in subjects with chorea associated with HD. This trial was conducted in the United States and Canada, in collaboration with the Huntington Study Group.\nSubjects in First-HD were treated with deutetrabenazine or placebo, starting at 6 mg once per day and titrating weekly to doses of up to 24 mg twice per day (48 mg total maximum daily dose). A total of 90 subjects (45 in each group) were enrolled for evaluation over 13 weeks. Subjects were individually titrated to an optimal dose over up to eight weeks, received maintenance therapy at the optimal dose for four weeks, and were taken off study medication in the final week of the trial.\nThe primary efficacy endpoint for the study was the change from baseline to maintenance therapy (average of Week 9 and Week 12 values) in the maximal chorea score of the UHDRS. The total maximal score, or TMC, is a clinician-based, quantitative assessment of chorea in seven body regions: face, mouth/tongue, trunk, and the four extremities, with higher scores representing more severe chorea.\nThe total motor score (TMS) of the UHDRS was prespecified as an additional efficacy endpoint in First-HD. The TMS assesses all the motor features of HD, including items addressing characteristic motor abnormalities other than chorea, such as dystonia, gait, parkinsonism, and postural instability.\nThe clinical relevance of the change in the TMC score was assessed with four prespecified secondary endpoints that assessed changes from baseline to end of treatment (Week 12). These secondary endpoints were tested in a hierarchical manner: • 1. Treatment success based on patient global impression of change (PGIC); • 2. Treatment success based on clinical global impression of change (CGIC); • 3. Physical Functioning Scale of the SF-36; and • 4. Balance, as assessed by the Berg Balance Test (BBT).\nThe PGIC and CGIC are single-item questionnaires that ask the subject and investigator, respectively, to assess a subject's overall HD symptoms at specific visits after initiating therapy. Both assessments use a 7-point Likert Scale, with responses ranging from Very Much Worse (−3) to Very Much Improved (+3) to assess overall response to therapy.\nAdverse events (AE) and their potential association with treatment were also monitored. Categories of AEs of particular focus included those known to be associated with tetrabenazine use: • Psychiatric disorders: insomnia, depression/agitated depression, abnormal dreams, agitation, anxiety, suicidal ideation, compulsions, impulsive behavior, and sleep disorders; • Nervous system disorders: somnolence, dizziness, akathisia/restlessness, cognitive disorders, drooling, dyskinesia, migraine, headache, loss of consciousness, and syncope (fainting); • General disorders: irritability, fatigue, gait disturbance, chest pain, and hangover; and • Gastrointestinal disorders: diarrhea, dry mouth, constipation, nausea, upper abdominal pain, dyspepsia, frequent bowel movements, gastrointestinal pain, vomiting, dysphagia, flatulence, and salivary hypersecretion.\nIn addition to AE reporting, rating scales were used to monitor for potential subclinical toxicity due to excessive monoamine depletion. […] These scales applied in First-HD included the Hospital Anxiety and Depression Scale (HADS), the Columbia Suicide Severity Rating Scale (C-SSRS), the Swallowing Disturbance Questionnaire (SDQ), the Unified Parkinson's Disease Rating Scale (dysarthria item) (UPDRS [dysarthria]), the Barnes Akathisia Rating Scale (BARS), and the Epworth Sleepiness Scale (ESS). In addition, the UHDRS, which includes cognitive, behavioral, and functional measures, was performed at key visits."}, "[4]": {"details": "n = 58, count (percent), listed as DTBZ"}},
  "data": [
    {"smiles": "[2H]C([2H])([2H])Oc1cc2c(cc1OC([2H])([2H])[2H])C1CC(=O)C(CC(C)C)CN1CC2", "note": "(stereo not drawn) [deutetrabenazine, (RR, SS)-1,3,4,6,7,11b-hexahydro-9,10-di(methoxy-d3)-3-(2-methylpropyl)-2H-benzo[a]quinolizin-2-one]", "values": [
      {"measurement": "CGIC Treatment Success, Treatment Difference", "setting": "[1]; DTBZ vs Placebo", "value": 7.90, "unit": "%"},
      {"measurement": "Change from baseline mCDQ-24, Treatment Difference", "setting": "[1]; DTBZ vs Placebo", "value": "−2.7"},
      {"measurement": "PGIC Treatment Success, Treatment Difference", "setting": "[1]; DTBZ vs Placebo", "value": 13.00, "unit": "%"},
      {"measurement": "AIMS Change (LS Mean), Treatment Difference", "setting": "[1]; DTBZ vs Placebo, p-value 0.0188", "value": "−1.4"},
      {"measurement": "Change from baseline mCDQ-24", "setting": "[1]; N = 56", "value": "−11.1"},
      {"measurement": "CGIC Treatment Success (%)", "setting": "[1]; Week 12, N = 56", "value": 48.20, "unit": "%"},
      {"measurement": "PGIC Treatment Success N (%)", "setting": "[1]; Week 12, N = 56", "value": 42.90, "unit": "%"},
      {"measurement": "AIMS Change (LS Mean)", "setting": "[1]; baseline to Week 12, N = 56", "value": "−3"},
      {"measurement": "improvement on the AIMS score", "setting": "[1]; baseline to end of therapy", "value": 3.0, "unit": "points"},
      {"measurement": "Depression/depressed mood reported", "setting": "[1]; in vivo", "value": "one patient"},
      {"measurement": "suicidal ideation reported", "setting": "[1]; in vivo", "value": "none"},
      {"measurement": "Any TEAEs (Treatment-Emergent Adverse Events)", "setting": "[1]; n = 58, count (percent)", "value": "41 (70.7%)"},
      {"measurement": "TEAE Anxiety", "setting": "[1]; n = 58, count (percent)", "value": "3 (5.2%)"},
      {"measurement": "TEAE Chest pain", "setting": "[1]; n = 58, count (percent)", "value": "1 (1.7%)"},
      {"measurement": "TEAE Constipation", "setting": "[1]; n = 58, count (percent)", "value": "2 (3.4%)"},
      {"measurement": "TEAE Diarrhea", "setting": "[1]; n = 58, count (percent)", "value": "3 (5.2%)"},
      {"measurement": "TEAE Dizziness", "setting": "[1]; n = 58, count (percent)", "value": "2 (3.4%)"},
      {"measurement": "TEAE Dry mouth", "setting": "[1]; n = 58, count (percent)", "value": "2 (3.4%)"},
      {"measurement": "TEAE Fatigue", "setting": "[1]; n = 58, count (percent)", "value": "4 (6.9%)"},
      {"measurement": "TEAE Headache", "setting": "[1]; n = 58, count (percent)", "value": "4 (6.9%)"},
      {"measurement": "TEAE Nasopharyngitis", "setting": "[1]; n = 58, count (percent)", "value": "2 (3.4%)"},
      {"measurement": "TEAE Nausea", "setting": "[1]; n = 58, count (percent)", "value": "2 (3.4%)"},
      {"measurement": "TEAE Pneumonia", "setting": "[1]; n = 58, count (percent)", "value": "1 (1.7%)"},
      {"measurement": "TEAE Upper respiratory tract infection", "setting": "[1]; n = 58, count (percent)", "value": "2 (3.4%)"},
      {"measurement": "TEAE Vomiting", "setting": "[1]; n = 58, count (percent)", "value": "1 (1.7%)"},
      {"measurement": "Serious TEAEs", "setting": "[1]; [4]", "value": "4 (6.9%)"},
      {"measurement": "TEAE Akathisia", "setting": "[1]; [4]", "value": "3 (5.2%)"},
      {"measurement": "TEAE Insomnia", "setting": "[1]; [4]", "value": "4 (6.9%)"},
      {"measurement": "TEAE Somnolence/sedation", "setting": "[1]; [4]", "value": "9 (15.5%)"},
      {"measurement": "TEAEs Resulting in Study Withdrawal", "setting": "[1]; [4]", "value": "1 (1.7%)"},
      {"measurement": "Maximum Placebo-Adjusted Change from Baseline in QTcF", "setting": "[2]; 12 mg single dose", "value": 2.8, "unit": "ms"},
      {"measurement": "Maximum Placebo-Adjusted Change from Baseline in QTcF", "setting": "[2]; 24 mg single dose", "value": 4.5, "unit": "ms"},
      {"measurement": "time point at which the maximal ΔΔQTcF was observed", "setting": "[2]; in vivo", "value": 8, "unit": "h"},
      {"measurement": "deaths in the study", "setting": "[3]", "value": "no deaths"}
    ]}
  ]
}
